1 compound from publication PMC10258805, “Nonpeptidic Oxazole-Based Prolyl Oligopeptidase Ligands with Disease-Modifying Effects on α-Synuclein Mouse Models of Parkinson’s Disease” (Journal of Medicinal Chemistry, 2023) can be followed below.

The target in one series is T1, PREP in HEK-293 cells (Homo sapiens, UniProt P48147).
T1 construct: endogenous in cells; host or cells: HEK-293 (ATCC)
T1 sequence (P48147 1-710): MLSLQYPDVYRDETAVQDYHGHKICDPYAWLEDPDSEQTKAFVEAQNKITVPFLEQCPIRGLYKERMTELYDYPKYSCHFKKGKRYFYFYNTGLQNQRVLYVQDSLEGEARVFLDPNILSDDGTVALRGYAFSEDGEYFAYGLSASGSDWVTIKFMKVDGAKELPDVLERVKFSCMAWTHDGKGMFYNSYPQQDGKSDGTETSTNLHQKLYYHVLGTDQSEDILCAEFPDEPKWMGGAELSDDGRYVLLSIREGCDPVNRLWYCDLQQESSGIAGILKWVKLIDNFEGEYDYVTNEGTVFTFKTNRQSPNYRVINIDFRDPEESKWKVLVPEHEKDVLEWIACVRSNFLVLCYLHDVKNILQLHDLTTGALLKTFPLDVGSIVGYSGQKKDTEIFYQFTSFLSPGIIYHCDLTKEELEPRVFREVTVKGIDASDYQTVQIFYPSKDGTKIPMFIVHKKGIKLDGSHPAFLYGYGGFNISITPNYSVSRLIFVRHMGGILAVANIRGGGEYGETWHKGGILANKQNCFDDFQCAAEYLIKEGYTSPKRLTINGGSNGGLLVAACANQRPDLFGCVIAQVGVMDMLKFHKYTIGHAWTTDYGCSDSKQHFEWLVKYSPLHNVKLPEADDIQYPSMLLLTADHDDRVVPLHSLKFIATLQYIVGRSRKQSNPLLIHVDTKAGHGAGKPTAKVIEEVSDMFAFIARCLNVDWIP
The series is described as follows: Cellular thermal shift assay (CETSA). It counts as cell-based. The conditions noted are these: 10 μM, 1 h. Here is the method: CETSA was performed as previously described.[41] HEK-293 cells were seeded to T25 flasks with a density of 1 × 10^6 cells. […] After the exposure, the cells were collected in PBS and aliquoted into 7 PCR tubes (100,000 cells/tube). The cells were prewarmed at 37 °C for 3 min, then heated to 37, 47, 50, 53, 56, 63, or 67 °C for 3 min and subsequently cooled at 25 °C for 3 min using a PCR Mastercycler (T100 Thermal Cycler, Bio-Rad). After heating, the cells were disrupted with two freeze–thaw cycles by submerging the tubes into liquid nitrogen and subsequently thawed by incubation at 25 °C for 3 min. The aggregated proteins were removed by centrifugation (at 20,000g for 20 min at 4 °C), and the soluble fractions were diluted with Laemmli buffer (Bio-Rad, Hercules, CA) and analyzed with Western blot as described above. The nondenaturated protein fractions (%) were calculated by comparing the intensities of temperature-treated cell samples to the corresponding cell samples from 37 °C.

The target in a further series is T2, DPP4 (Homo sapiens, UniProt P27487).
T2 construct: DPPIV was purified from human seminal plasma; from tissue; host or cells: human seminal plasma
T2 sequence (P27487 whole entry): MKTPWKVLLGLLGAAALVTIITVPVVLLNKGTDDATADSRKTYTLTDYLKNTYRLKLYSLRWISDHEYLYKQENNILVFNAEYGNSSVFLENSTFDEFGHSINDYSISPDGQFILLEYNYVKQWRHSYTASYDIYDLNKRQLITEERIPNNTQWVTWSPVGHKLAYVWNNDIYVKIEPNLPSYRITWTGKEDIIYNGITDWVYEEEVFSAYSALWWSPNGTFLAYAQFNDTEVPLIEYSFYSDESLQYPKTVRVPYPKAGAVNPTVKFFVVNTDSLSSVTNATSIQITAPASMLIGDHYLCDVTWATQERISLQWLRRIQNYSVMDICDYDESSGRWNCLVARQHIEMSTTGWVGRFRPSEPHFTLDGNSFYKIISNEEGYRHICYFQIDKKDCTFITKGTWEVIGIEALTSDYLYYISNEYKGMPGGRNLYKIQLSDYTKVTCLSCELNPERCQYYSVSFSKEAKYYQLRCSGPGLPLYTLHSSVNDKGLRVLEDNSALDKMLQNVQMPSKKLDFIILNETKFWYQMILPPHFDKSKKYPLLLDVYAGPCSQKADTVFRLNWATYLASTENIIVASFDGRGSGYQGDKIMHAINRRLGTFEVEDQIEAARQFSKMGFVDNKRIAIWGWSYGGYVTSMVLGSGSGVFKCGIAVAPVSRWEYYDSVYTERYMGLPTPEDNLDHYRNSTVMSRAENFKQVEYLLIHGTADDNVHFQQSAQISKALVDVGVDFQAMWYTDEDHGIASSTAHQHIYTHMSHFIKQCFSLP
The series is described as follows: Close-relative enzyme specificity assay, DPP4. It counts as biochemical. The settings on record: 1 or 10 μM. Here is the method:
DPP4: DPPIV was purified from human seminal plasma, as described previously.
DPP4 and DPP9: Ala-Pro-para-nitroanilide (pNA) was used as the substrate at the respective concentrations of 25 μM (DPP4) or 150 μM (DPP9) at pH 7.4 (0.05 M HEPES–NaOH buffer with 0.1% Tween-20, 0.1 mg/mL BSA, and 150 mM NaCl). […] Measurements were done on the Infinite 200 as above.

The target in a further series is T3, Recombinant human DPP2 (Homo sapiens, UniProt Q9UHL4).
T3 construct: purchased R&D Systems 3438-SE-010
The series is described as follows: Close-relative enzyme specificity assay, DPP2. It counts as biochemical. The conditions noted are these: 1 or 10 μM. The protocol: DPP2: Recombinant human DPP2 was purchased from R&D Systems (#3438-SE-010).
DPP2: Lys-Ala-pNA was used as the substrate at a concentration of 1 mM at pH 5.5 (100 mM NaAc, 10 mM EDTA, 14 μg/mL aprotinin). […] The substrate was added, and the velocities of pNA release were measured kinetically at 405 nm for at least 10 min at 37 °C. Measurements were done on the Infinite 200 as above.

Series [1] deals with αSyn dimerization in HEK-293 PREP-KO cells. Put plainly: αSyn-dimerization assay in PREP-KO cells. It counts as cell-based, human.
In series [2] the test system is pPP2Ac and PP2Ac in HEK-293 cells. The series is described as follows: PP2A marker assay (Western blot). In kind it is cell-based, human. The conditions noted are these: HEK-293, 10 μM.
A further series deals with LC3BII in HEK-293 cells. The series is described as follows: Autophagy marker LC3BII assay (Western blot). It counts as cell-based, human. The settings on record: HEK-293, 10 μM.
The next series concerns SH-SY5Y cells. Put plainly: Cell viability (MTT) in SH-SY5Y cells. It counts as cell-based, human. The conditions noted are these: up to 100 μM, 24 h. The protocol: Toxicity testing of selected compounds
The impact of compounds on cell viability was assayed at the end of incubation period using a standard MTT assays as described earlier in Svarcbahs et al.11 and Myöhänen et al.12 HEK-293 and SH-SY5Y cells and mouse primary neurons were seeded onto 96-well plates (10,000 cells/well) and incubated overnight. Thereafter, the cells were incubated with 1, 10, and 100 µM of study compounds for 24 h (HEK-293 and SH-SY5Y cells) or 48 h (mouse primary neurons), followed by the measurement of mitochondrial […]
Figure S68. Selected oxazoles were tested for cell viability in an MTT assay after 24 h treatment in (A) HEK-293 cells and (B) SH-SY5Y cells and 48 h treatment in (C) mouse primary neurons. Even with the high […]
Data are presented as mean + […]
LC-MS detection of HUP-55 metabolites in the mouse brain
The same column and gradient was used with UPLC-HDMS analysis of the metabolites of HUP-55, as for the analysis of HUP-55 detailed in the experimental section of the article. The analyses were performed with ESI (+) resolution mode and the exact masses were analysed with UPLC-Synapt G2 QTOF/MS (Waters). The […]
Compound Retention time (min) m/z (M+H)+ Empirical formula

For series [3], the system named is pPP2Ac and PP2Ac in mouse brain. The series is described as follows: PP2A markers in mouse brain (Western blot). In kind it is in vivo. The settings on record: 10 mg/kg i.p., 45 min after injection. In general terms: In western blotting, separated proteins are transferred to a membrane and probed.
A further series concerns LC3BII in mouse brain. The series is described as follows: LC3BII in mouse brain (Western blot). The settings on record: 10 mg/kg i.p., 45 min after injection. In kind it is in vivo.
The test system of series [4] is oligomeric αSyn in A30P*A53T transgenic mice. The series is described as follows: Oligomeric αSyn in A30P*A53T transgenic mice. The conditions noted are these: TG mice, 10 mg/kg i.p. every 12 h for 7 days, vs vehicle. In kind it is in vivo, mouse.
Series [5] relates to oligomeric αSyn in AAV-αSyn-injected mice. Put plainly: Oligomer-specific αSyn immunoreactivity (OD) in AAV-αSyn PD mouse model. The conditions noted are these: 10 mg/kg/day minipump, 4 weeks.

“Also recorded” adds a separate entry of the source.

As for `Cc1nc(CCCc2ccccc2)oc1N1CCC[C@H]1C#N` [HUP-55, (S)-1-(4-Methyl-2-(3-phenylpropyl)oxazol-5-yl)pyrrolidine-2-carbonitrile], the “fitted mean aggregation temperature” value on PREP in HEK-293 cells came to 53.19 °C. Moreover, the “increase in the fitted mean aggregation temperature” value on PREP in HEK-293 cells (vs DMSO) stood at 3.01 °C. The “inhibition of DPP4” value against DPP4 is reported as “no inhibition; also recorded: does not inhibit”. Besides, the “inhibition of DPP2” value on Recombinant human DPP2 is on record as “no inhibition; also recorded: does not inhibit”. Further, the “effect on αSyn dimerization” value in series [1] is listed as “no effect on αSyn dimerization”. Also, in series [2] (4 h), the “pPP2Ac levels (in words)” value is listed as “significant decrease in pPP2Ac levels” and the “total PP2Ac levels (in words)” value was “elevated total PP2Ac levels”. The “PP2Ac levels (in words)” value in [2] (24 h) is on record as “significantly elevated”. The “LC3BII levels (in words)” value in the series on LC3BII in HEK-293 cells (4 h) was “significant increase in LC3BII levels”. In the series with LC3BII in HEK-293 cells (24 h), the “LC3BII levels (in words)” value was “significantly elevated LC3BII levels”. Moreover, the “toxicity (cell viability)” value in the series on SH-SY5Y cells is listed as “None of the compounds caused any toxicity”. Also, in [3], the “inactive pPP2Ac levels in mouse brain (in words)” value was “decreased inactive pPP2Ac levels, but this was not significant” and the “levels of PP2Ac in mouse brain (in words)” value is listed as “significantly increased the levels of PP2Ac”. Further, the “levels of LC3BII in mouse brain (in words)” value in the series on LC3BII in mouse brain is on record as “significantly elevated”. For the same compound, the “decrease of oligomeric αSyn in the SNpc” value in series [4] (nonsignificant) was 38%. In [4] (not statistically significant), the “decrease of oligomeric αSyn in the STR” value is reported as 47%. Besides, in [5] (vs vehicle-treated group), the “OD of oligomeric αSyn in the SNpc (in words)” value was “did not significantly reduce”. Also, the “OD of oligomer-specific αSyn in the STR (in words)” value in [5] (vs vehicle-treated mice) was “decreased the OD of oligomer-specific αSyn”.
